Data published in US11845927B2, “Bioremediation using co-metabolism substrates” (Oregon State University, priority 2018, dated 2023).
Converted amounts (≈) assume the structure as drawn. Where two headings read alike, the source gives them in different places.

Assays:
[1] = Growth substrates: final OD and % removal of cis-DCE and TCE (Table 1); assay type: cell-based; settings: culture grown on the listed substrate
[2] = system: short chain alkane monoxygenase (SCAM); test: Activity-based labeling (ABL) of SCAM after growth on substrates; assay type: cell-based, Rhodococcus rhodochrous 21198; settings: 21198 grown on the substrate
From the text: ABL testing was used to identify alcohol growth substrates that induce SCAM expression and activity and result in co-metabolic transformation of contaminants, such as 1,4-D and CAHs.

[3] = cited from earlier work; for Henry's Constant, Hcc: dimensionless
[4] = system: Burkholderia vietnamiensis G4; test: Resting cell TCE transformation tests with G4; assay type: cell-based; settings: G4 grown on the substrate
From the text: This example concerns COC cometabolism by Burkholderia vietnamiensis G4 (G4).

[5] = system: Rhodococcus rhodochrous 21198; test: Resting cell co-metabolic transformation tests with 21198; assay type: cell-based; settings: 21198 grown on isobutane, previous batch experiments
[6] = system: Rhodococcus rhodochrous 21198; test: Growth cometabolism batch tests of 21198 on 2-butanol or orthosilicate SRCs; assay type: cell-based; settings: for first order rate of 1,4-D transformation / first-order rate of 1,1,1-TCA transformation: 21198 grown in the presence of the orthosilicate; for period over which cometabolic transformation of 1,1,1-TCA and 1,4-D was maintained: single addition of the SRC
Protocol: Growth on 2-butanol was tracked by the production of CO2, the increase in optical density and the consumption of 2-butanol (FIG. 11).
Three additions of 1,1,1-TCA and 1,4-D were made to the two biologically active reactors at 0, 21, and 60 days. […] A third addition of 1,1,1-TCA and 1,4-D was made to the active bottles around day 60.
The same growth cometabolism test performed with T2BOS as an SRC was performed for TBOS (FIGS. 16 and 17).
Tetraisopropoxysilane (T2POS) is a 2-propanol releasing orthosilicate, similar to TBOS and T2BOS. […] An identical test was performed to those presented for TBOS and T2BOS. The same growth indicators, CO2, O2, and 2-propanol, were tracked throughout the experiment (FIG. 18).

[7] = Alcohol release from orthosilicates in poisoned control batch reactors; assay type: physicochemical
From the text: A slow but gradual rate of O2 consumption was observed, when headspace O2 concentrations are compared to the poisoned controls (FIG. 13). […] T2BOS is not rapidly utilized by 21198 like observed with sBA (FIG. 15), and 2-butanol is released by abiotic hydrolysis. The slow rate of hydrolysis is indicated by the measured 2-butanol concentrations in the poisoned reactor. Over the period of 60 to 125 days approximately 50 μmol of 2-butanol was formed.
Tetraisopropoxysilane (T2POS) is a 2-propanol releasing orthosilicate, similar to TBOS and T2BOS. […] The smaller 2-propanol therefore would be released from T2POS more rapidly than 2-butanol from T2BOS [6], but slower than TBOS. An identical test was performed to those presented for TBOS and T2BOS. The same growth indicators, CO2, O2, and 2-propanol, were tracked throughout the experiment (FIG. 18).

[8] = Abiotic hydrolysis of suspended and encapsulated TBOS and T2BOS; assay type: physicochemical; settings: for factor of decrease of hydrolysis rate in encapsulated beads compared to solution: similar masses present
Protocol: This example concerns abiotic hydrolysis experiments. Batch reactors similar to the CoC transformation reactors were used to determine the rate of hydrolysis of TBOS and T2BOS free suspended in solution and encapsulated at different mass loadings in both alginate and gellan gum. These batch kinetic tests were conducted at a constant 20° C. in 155 mL glass Wheaton bottles sealed with reusable screw on caps fitted with gray butyl rubber septa. Reactors were filled with 100 mL of pH-7 carbonate buffered MSM followed by an addition of free suspended or encapsulated SRCs. The total mass of SRC added to each reactor was dependent on various parameters but ranged from 1000-1500 mg/L. All hydrolysis rates observed here were abiotic hydrolysis rates, which was ensured by the addition of 0.2% (w/v) sodium azide as a microbial poison and typically measurements of respiration data (O2/CO2).
Reactors with TBOS and T2BOS in free suspension at concentrations that replicate encapsulated SRC reactors were created to determine the effect of encapsulation on SRC hydrolysis. Substrate production rates were used as a proxy for SRC hydrolysis, due to the simplicity of substrate analysis. Direct measurements of 1- and 2-butanol in solution were made in order to determine substrate production rates and measurements are presented on a total mass produced basis. Hydrolysis of orthosilicate compounds is acid and base catalyzed and therefore, observed hydrolysis rates are on the low end of what is possible, due to suspension in pH-7 media.
The concentrations of TBOS and T2BOS in solution effects the rate of hydrolysis, and therefore, concentrations of SRCs in abiotic reactors were created to mimic the concentration of SRCs in biotic co-encapsulated reactors, ˜1000-1500 mg/L. Biotic and abiotic reactors were created in unison and monitored alongside one another, though abiotic data have been separated and are presented below. To prevent contamination from occurring over the long duration of these experiments sodium azide, 0.2% (w/v), was added to all abiotic reactors.
Due to the ease of encapsulation of SRCs within alginate, initial abiotic hydrolysis work was conducted using alginate encapsulated TBOS. TBOS was encapsulated in abiotic alginate macro-beads at a mass loading of ˜5% and 30% (w/w). These beads were then added to triplicate reactors, such that the final TBOS concentration in pH-7 carbonate buffered media was kept constant at ˜1000 mg/L; i.e., 2 grams of 5% beads and ⅓ grams of 30% beads were added to 100 mL media solution. […] To illustrate the effect of encapsulation on the hydrolysis rate of TBOS, reactors containing similar concentrations of suspended TBOS were created and monitored alongside encapsulated TBOS reactors.
Total TBOS solution concentrations of ˜1000 mg/Land bead mass loading ˜5 and 30% (w/A). Datapoints are averages between duplicate (suspended) or triplicate (encapsulated) reactors in each treatment and errors bars are 95% confidence intervals. Suspended TBOS reactors were created after encapsulated reactors and therefore, have a shorter total duration of measurements.
The abiotic hydrolysis rate of both TBOS and T2BOS encapsulated in gellan gum was also investigated. Both SRCs were encapsulated in cylindrical gellan macro-beads at mass loadings of ˜8% (w/w). For this work ATCC 21198 was also co-encapsulated within the gellan gum matrix at initial concentrations of ˜0.5 mgTss/g, and an addition of 0.2% (w/v) sodium azide was added as a cellular poison to ensure cells were not alive within the matrix. Biomass was encapsulated because it had been determined that encapsulated SRCs may hydrolyze more quickly with cells present within the encapsulation matrix. Although, the increase in hydrolysis rate was not proven to be from biotic hydrolysis of SRCs and may have been due to the presence of biomass within the matrix allowing more diffusion of water into and butanol out of beads. […]

[9] = cited from earlier work
[10] = abiotic hydrolysis, aqueous alcohol
[11] = Table 15, summary of abiotic hydrolysis rates

1-Propanol
% REMOVAL Cis-DCE [1]: 44%
FINAL OD(550) [1]: 0.24
SCAM activity / protein banding pattern [2]: not induced

1-butanol
% REMOVAL Cis-DCE [1]: 98%
% REMOVAL TCE [1]: 16%
FINAL OD(550) [1]: 0.24
SCAM activity / protein banding pattern [2]: not induced

2-butanol
SCAM activity / protein banding pattern [2]: observed

CC(Cl)(Cl)Cl [1,1,1-Trichloroethane]
Solubility, Sw [3]: 1,290 mg/L
Henry's Constant, Hcc [3]: 0.548

C1COCCO1 [1,4-Dioxane]
Henry's Constant, Hcc [3]: 0.000198

CC=CCO [2-buten-1-ol]
% REMOVAL Cis-DCE [1]: 67%
% REMOVAL TCE [1]: 20%
FINAL OD(550) [1]: .023

CC(C)O [2-propanol]
SCAM activity / protein banding pattern [2]: faint banding pattern

C=CCCO [3-buten-1-ol]
% REMOVAL Cis-DCE [1]: 89%
% REMOVAL TCE [1]: 21%
FINAL OD(550) [1]: .022

C=CC(C)O (centres unmarked) [3-buten-2-ol]
FINAL OD(550) [1]: 0.03

CC(=O)O [Acetate]
% REMOVAL Cis-DCE [1]: 73%
FINAL OD(550) [1]: 0.33
TCE transformation by resting cells [4]: Slow rates

O=C(O)c1ccccc1 [Benzoate]
% REMOVAL Cis-DCE [1]: 84%
% REMOVAL TCE [1]: 6%
FINAL OD(550) [1]: 0.24

OCc1ccccc1 [Benzyl alcohol]
% REMOVAL TCE [1]: 100%
TCE transformation by resting cells [4]: rapidly cometabolized

CCCC(=O)O [Butyrate]
% REMOVAL TCE [1]: 9%

CCO [Ethanol]
SCAM activity / protein banding pattern [2]: not induced

CC(C)C [Isobutane]
SCAM activity / protein banding pattern [2]: strongest banding pattern
VC transformation rate [5]: about 14 μmol/mg TSS/day
Solubility, Sw [3]: 48.9 mg/L (≈ 841 µM)
Henry's Constant, Hcc [3]: 49.2

Oc1ccccc1 [Phenol]
% REMOVAL TCE [1]: 100%
TCE transformation by resting cells [4]: slower transformation rates

CCC(C)O[Si](OC(C)CC)(OC(C)CC)OC(C)CC (centres unmarked) [T2BOS, tetra-sec-butyl orthosilicate]
first order rate of 1,4-D transformation [6]: 0.04 day⁻¹
first-order rate of 1,1,1-TCA transformation [6]: 0.037 day⁻¹
period over which cometabolic transformation of 1,1,1-TCA and 1,4-D was maintained [6]: 125 days
2-butanol production rate in poisoned control [7, 10]: 0.76 µmol/day
2-butanol formed in poisoned reactor ([7]; over the period of 60 to 125 days, T2BOS 1500 mg/L): approximately 50 μmol
Estimated Exhaustion of T2BOS ([8]; Table 13): 12.9 years
Butanol Production Rate ([8]; Table 13, SRC ~1500 mg/L, pH-7): 0.40 µmol/day
Estimated Exhaustion of TBOS ([8]; Table 14): 12.9 years
Butanol Production Rate ([8]; Table 14, SRC 1500 mg/l): 0.40 µmol/day
Estimated Exhaustion of SRS ([8]; Table 15): 12.9 years
Butanol Production Rate [8, 11]: 0.40 µmol/day
factor of decrease of hydrolysis rate in encapsulated beads compared to solution [8]: 10
estimated solubility [9]: 6.8 µg/mL
estimated solubility ([9]; listed as tetra-sec-butyl orthosilicate): 3.8 µg/mL

CC(C)O[Si](OC(C)C)(OC(C)C)OC(C)C [T2POS, tetraisopropoxysilane]
first order rate of 1,4-D transformation [6]: 0.24 day⁻¹
first-order rate of 1,1,1-TCA transformation [6]: 0.14 day⁻¹
alcohol production rate in poisoned control [7, 10]: 5.1 µmol/day

CCCCO[Si](OCCCC)(OCCCC)OCCCC [TBOS, tetrabutyl orthosilicate]
first order rate of 1,4-D transformation [6]: 0.76 day⁻¹
first-order rate of 1,1,1-TCA transformation [6]: 0.47 day⁻¹
period over which cometabolic transformation of 1,1,1-TCA and 1,4-D was maintained [6]: 45 days
alcohol production rate in poisoned control [7, 10]: 11 µmol/day
Estimated Exhaustion of TBOS ([8]; Table 12): 0.6 years
Butanol Production Rate ([8]; Table 12, 1-butanol, TBOS ~1000 mg/L, pH-7, 20° C.): 5.9 µmol/day
Estimated Exhaustion of SRS ([8]; Table 15): 0.58 years
Butanol Production Rate [8, 11]: 5.91 µmol/day
factor of decrease of hydrolysis rate in encapsulated beads compared to solution [8]: 10

C#C [acetylene, reference compound]
effect on transformation of 1,1,1-TCA and 1,4-D ([6]; acetylene present during growth of 21198 on 2-butanol): blocked

CC(=O)OCc1ccccc1 [benzyl acetate]
TCE transformation by resting cells [4]: slower transformation rates

CCCC(=O)OCc1ccccc1 [benzyl butyrate]
TCE transformation by resting cells [4]: rapidly cometabolized

CCC(C)OC(C)=O (centres unmarked) [sec-butyl acetate]
estimated solubility [9]: 3520 µg/mL
